Experimental data as given in patent US11731946B2, “Broad spectrum antivirulence, anti-persistence compounds” (priority 2017, dated 2023).

Tests used:
Type in all cases: cell-based, P. aeruginosa
MvfR regulon [1] = test: Quantification of pyocyanin (OD520nm of chloroform-extracted cultures); settings: for pyocyanin @50 uM (%): compound at 50 uM; for activity at 50 µM / IC50 / activity at 1 µM / activity at 10 µM: Pseudomonas aeruginosa; for activity at 50 µM: read-out: pyocyanin @50 uM (%), compound at 50 uM; for IC50: read-out: IC50 pyocyanin (μM); for activity at 1 µM: read-out: pyocyanin @1 uM (%), compound at 1 uM; for activity at 10 µM: read-out: pyocyanin @10 uM (%), compound at 10 uM
MvfR regulon [2] = test: pqsA gene expression (pqsA-GFP reporter); settings: for pqsA @50 uM (%): compound at 50 uM; for activity at 50 µM / activity at 10 µM: Pseudomonas aeruginosa; for activity at 50 µM: read-out: pqsA @50 uM (%), compound at 50 uM; for activity at 10 µM: read-out: pqsA @10 uM (%), compound at 10 uM
Description: Experiments were performed to identify compounds that inhibit the MvfR regulon without altering growth, ultimately attenuating P. aeruginosa infection. MvfR is a LysR-type transcriptional regulator that directs HAQs synthesis, including that of its ligands, 4-hydroxy-2-heptylquinoline (HHQ) and 3,4-dihydroxy-2-heptylquinoline (PQS).
MvfR promotes the production of HAQs by binding to and activating the pqs operon, which encodes enzymes for HAQ synthesis. Anthranilic acid (AA), derived from the phnAB, kynABU, and trpEG pathways, is the precursor for HAQs. pqsA encodes an anthranilate-coenzyme A ligase, which activates anthranilic acid and catalyzes the first committed step to HAQ production. The exact roles of PqsB and PqsC are unknown, though both show homology to acyl-carrier-proteins and both are required for HHQ and PQS production. […] The final gene of the operon, pqsE encodes for a putative hydrolase, and while the protein is not required for the synthesis of HAQs, it is necessary for pyocyanin production.
Nanomolar levels of most of these MvfR antagonists impeded the activity of MvfR and in consequence the MvfR virulence regulated ACRP functions, including: (1) the production of the important pro-acute P. aeruginosa virulence factor pyocyanin (see e.g., FIG. 9A) the efficacy of two of these potent inhibitors, D57 and D88, was also confirmed by testing many different MDR P. aeruginosa clinical isolates (see e.g., FIG. 11A-11B), providing further confidence of their inhibitory potency; (2) the expression of the genes that encode the enzymes catalyzing the synthesis of both pro-acute and pro-persistence MvfR-regulated virulence molecules, 4-hydroxyl-2-alkyl-quinolines (HAQs) and 2-aminoacetophenon (2-AA), as assessed by pqsAGFP reporter gene expression (see e.g., FIG. 9B) and HAQ production showing the levels of MvfR inducers/ligands HHQ and PQS as well as of the molecules critical for biofilm and Antibiotic tolerant/persiters cells formation HQNO and 2-AA (see e.g., FIG. 9C); (3) AT/P cell formation (see e.g., FIGS. 11A, 12A); (4) biofilm formation (see e.g., FIG. 12B); and (5) biofilm dispersal of preformed biofilm by potentiating antibiotic action (see e.g., FIG. 11B).

MvfR regulon [3] = test: LC/MS quantification of HAQs and related molecules in bacterial culture supernatants; settings: Pseudomonas aeruginosa

Compound | activity at 50 µM (MvfR regulon [3]; read-out: 2-AA @50 uM) [%] | activity at 50 µM (MvfR regulon [3]; read-out: HHQ @50 uM (%)) [%] | activity at 50 µM (MvfR regulon [3]; read-out: HQNO @50 uM (%)) [%] | activity at 50 µM (MvfR regulon [3]; read-out: PQS @50 uM (%)) [%] | activity at 50 µM (MvfR regulon [1]) [%] | activity at 50 µM (MvfR regulon [2]) [%] | activity at 1 µM (MvfR regulon [1]) [%] | activity at 10 µM (MvfR regulon [1]) [%] | activity at 10 µM (MvfR regulon [2]) [%] | other results
Cc1cc(F)ccc1NCC(=O)Nc1cccc(C#N)c1 [Compound 2] | 122 | 100 | 101 | 109 | – | – | – | – | – | pyocyanin @50 uM (%) (MvfR regulon [1]; listed as G1): 102.49%; pqsA @50 uM (%) (MvfR regulon [2]; listed as G1): 84.13%
Cc1cc(F)ccc1NCC(=O)Nc1ccc(C(F)(F)F)cc1 [Compound 3] | 68.3 | 110 | 86.5 | 93.4 | 60.9 | 46 | – | – | – | activity at 50 µM (MvfR regulon [3]; read-out: DHQ @50 uM): 81.5%
Cc1cc(F)ccc1NCC(=O)Nc1ccccc1C#N [Compound 4] | 123 | 99.2 | 111 | 122 | 113 | 95.9 | – | – | – | –
Cc1cc(F)ccc1NCC(=O)Nc1ccc(F)cc1 [Compound 5] | 80.4 | 94.6 | 92.3 | 88.5 | 83.6 | 92 | – | – | – | activity at 50 µM (MvfR regulon [3]; read-out: DHQ @50 uM): 84.7%
Cc1cc(F)ccc1OCC(=O)Nc1ccc(C#N)cc1 [Compound 6] | 63.4 | 114 | 111 | 114 | 98.4 | 98 | – | – | – | activity at 50 µM (MvfR regulon [3]; read-out: DHQ @50 uM): 82.7%
Cc1cc(F)ccc1NC(C)C(=O)Nc1ccc(C#N)cc1 (stereo not shown) [Compound 7] | 152 | 106 | 131 | 115 | 110 | 86.8 | – | – | – | –
Cc1cc(F)ccc1OCC(=O)Nc1ccc(F)cc1 [Compound 8] | 71.7 | 83.5 | 94 | 94.7 | 91.1 | 78 | – | – | – | activity at 50 µM (MvfR regulon [3]; read-out: DHQ @50 uM): 67.8%
N#Cc1ccc(NC(=O)CNc2ccc(F)cc2)cc1 [Compound 9] | 112 | 87.1 | 108 | 124 | 85.6 | 63.2 | – | – | – | –
Cc1ccccc1NCC(=O)Nc1ccc(C#N)cc1 [Compound 10] | 63.9 | 76.4 | 92.5 | 124 | 94.3 | 92.9 | – | – | – | activity at 50 µM (MvfR regulon [3]; read-out: DHQ @50 uM): 59.5%
Cc1ccccc1N(C)CC(=O)Nc1ccc(C#N)cc1 [Compound 12] | 63.1 | 73.4 | 91.2 | 95.5 | 96 | 95.7 | – | – | – | activity at 50 µM (MvfR regulon [3]; read-out: DHQ @50 uM): 51.5%
N#Cc1ccc(NC(=O)CCNc2ccc(F)cc2)cc1 [Compound 46] | 113 | 97 | 95.8 | 97.2 | 90.8 | 79.6 | – | – | – | activity at 50 µM (MvfR regulon [3]; read-out: AA @50 uM): 101%; activity at 50 µM (MvfR regulon [3]; read-out: DHQ @50 uM): 99.5%
N#Cc1ccc(NC(=O)CCNc2ccc(F)cc2F)cc1 [Compound 47] | 100 | 109 | 101 | 108 | 88.3 | 74.3 | – | – | – | activity at 50 µM (MvfR regulon [3]; read-out: AA @50 uM): 129%; activity at 50 µM (MvfR regulon [3]; read-out: DHQ @50 uM): 99.3%
N#Cc1ccc(NC(=O)CC(=O)Nc2ccc(C#N)nc2)cc1 [Compound 92] | – | – | – | – | 6.8 | – | 64.5 | 13.9 | 25.4 | IC50 (MvfR regulon [1]): 1.61 µM
N#Cc1ccc(NC(=O)CC(=O)Nc2ccc(C#N)cn2)cc1 [Compound 93] | – | – | – | – | 14.3 | – | 79.6 | 53.5 | 61.3 | –
N#Cc1ccc(NC(=O)C2CCN(c3ccc(F)cc3)C2=O)cc1 (stereo not shown) [Compound 94] | – | – | – | – | 95.2 | – | 94.6 | 94 | 109 | –
CC(C(=O)Nc1ccc(C#N)cc1)C(=O)Nc1ccc(C#N)cc1 [Compound 95] | – | – | – | – | 7 | – | 93.5 | 23.9 | 45.7 | IC50 (MvfR regulon [1]): 1.35 µM

Compound | activity at 50 µM (MvfR regulon [3]; read-out: 2-AA @50 uM) [%] | activity at 50 µM (MvfR regulon [3]; read-out: HHQ @50 uM (%)) [%] | activity at 50 µM (MvfR regulon [3]; read-out: HQNO @50 uM (%)) [%] | activity at 50 µM (MvfR regulon [3]; read-out: PQS @50 uM (%)) [%] | activity at 50 µM (MvfR regulon [1]) [%] | activity at 50 µM (MvfR regulon [2]) [%] | activity at 1 µM (MvfR regulon [1]) [%] | activity at 10 µM (MvfR regulon [1]) [%] | activity at 10 µM (MvfR regulon [2]) [%] | other results
N#Cc1ccc(NC(=O)CS(=O)(=O)Nc2ccc(C#N)cc2)cc1 [Compound 96] | – | – | – | – | 111 | – | 97.3 | 109 | 118 | –
N#Cc1ccc(NC(=O)CC(=O)N2CCc3cc(C#N)ccc32)cc1 [Compound 97] | – | – | – | – | 82.3 | – | 99.9 | 74.5 | 99.7 | –
N#Cc1ccc(/C=C/C(=O)Nc2ccc(C#N)cc2)cc1 [Compound 98] | – | – | – | – | 114 | – | 94.5 | 108 | 114 | –
N#Cc1ccc(NC(=O)CC(=O)Cc2ccc(F)cc2)cc1 [Compound 99] | – | – | – | – | 102 | – | 92 | 115 | 96.3 | –
N#Cc1ccc(NC(=O)CC(=O)Nc2ccncc2)cc1 [Compound 100] | – | – | – | – | 81.9 | – | 66.3 | 101 | 88.9 | –
N#Cc1ccc(NC(=O)/C=C/C(=O)Nc2ccc(F)cc2)cc1 [Compound 101] | – | – | – | – | 87.8 | – | – | – | 96.3 | –
N#Cc1ccc(NC(=O)C2(C(=O)Nc3ccc(C#N)cc3)CC2)cc1 [Compound 102] | – | – | – | – | 96.8 | – | – | – | 93.4 | –
N#Cc1ccc(NC(=O)CC(O)Cc2ccc(F)cc2)cc1 (stereo not shown) [Compound 104] | – | – | – | – | 95.3 | – | – | – | 97.3 | –
N#Cc1ccc2c(c1)OCCN2C(=O)CC(=O)Nc1ccc(Oc2ccccc2)cc1 [Compound 105] | – | – | – | – | 11.4 | – | 68 | 32 | 47.3 | IC50 (MvfR regulon [1]): 2.78 µM
N#Cc1ccc(NC(=O)CC(=O)Nc2ccc(C#N)nc2)cn1 [Compound 106] | – | – | – | – | 43.1 | 38.9 | 90 | 75.6 | 80 | –
N#Cc1ccc(NC(=O)CC(=O)Nc2ccc(Oc3ccccc3)cc2)c(N)c1 [Compound 107] | – | – | – | – | – | – | 75 | 12.1 | 2.1 | pyocyanin @50 uM (%) (MvfR regulon [1]; listed as D92): 3.51%; pqsA @50 uM (%) (MvfR regulon [2]; listed as D92): 1.40%
CC(F)(C(=O)Nc1ccc(C#N)cc1)C(=O)Nc1ccc(C#N)cc1 [Compound 109] | – | – | – | – | 51.5 | 84.9 | 98.6 | 78.2 | 87 | –
N#Cc1ccc(NC(=O)C(F)C(=O)Nc2ccc(C#N)cc2)cc1 [Compound 111] | – | – | – | – | 34 | 41.8 | 91.7 | 50.8 | 62.8 | –
N#Cc1ccc(NC(=O)C(F)(F)C(=O)Nc2ccc(C#N)cc2)cc1 [Compound 112] | – | – | – | – | 93.6 | 95.1 | 101 | 87.1 | 95.4 | –
O=C(CC(=O)Nc1ccc(C(F)(F)F)cc1)Nc1ccc(Oc2ccccc2)cc1 [Compound 113] | – | – | – | – | 42.1 | 28.8 | 68 | 60.9 | 37.2 | –
N#Cc1ccc(NC(=O)C(N)C(=O)Nc2ccc(C#N)cc2)cc1 [Compound 114] | – | – | – | – | 2.85 | 1.75 | 94.9 | 66.1 | 58.9 | –
